The values below come from US12201598B2, “Immunoregulatory microparticles for modulating inflammatory arthritides” (The Regents of the University of California, priority 2021, dated 2025).

The test system of data set [1] is SKG mice with mannan-induced arthritis. Kind of data set: IA treatment of established SKG arthritis (clinical score, ankle thickness). It counts as in vivo, mouse. The method, then: To assess the feasibility of modulating established SKG arthritis. ATRA-encapsulated PLGA MPs were injected into the tibial/tarsal ankle joint of ten SKG mice with middle stage arthritis, prior to the development of severe symptoms. PLGA-Blank MPs were injected into the tibial/tarsal ankle joint of eleven SKG mice with middle stage arthritis. Arthritis onset was synchronized using inter-peritoneal (IP) mannan injection. ATRA-encapsulated PLGA MPs treatment was administered after 14 days, corresponding to established SKG arthritis (FIG. 3A). To track MP degradation in vivo, cyanine-5 (Cy5) conjugated PLGA was incorporated to generate fluorescently labeled Cy5 PLGA MPs and PLGA MPs without ATRA (PLGA-Blank MPs). The PLGA-Blank MPs were imaged using a live animal. In Vivo Imaging System (IVIS). […] Based on fluorescence attenuation, MPs remained localized in the joint after injection and steadily degraded over the course of the study (FIG. 3B). Arthritis progression was quantified using bi-weekly clinical scoring between the treatment groups. […] The improvement in clinical score and ankle thickness measurements were quantified in both the ipsilateral and contralateral joints in the above described studies (FIG. 3H-J, FIGS. 6B and C).

Data set [2] deals with arthritic SKG mice. Kind of data set: subcutaneous administration to arthritic SKG mice. It counts as in vivo, mouse. As to conditions: subcutaneously between the scapula. As for the experimental part:
The efficacy of subcutaneously administered ATRA-encapsulated PLGA MPS in treating SKG mice was assessed to determine whether ATRA-encapsulated PLGA MPS act via systemic release, in which case subcutaneous ATRA-encapsulated PLGA MPS treatment would improve disease scores, or if ATRA-encapsulated PLGA MPS treatment acts locally, in which case its delivery to the intra-articular space would improve disease scores. ATRA-encapsulated PLGA MPS, dose-matched Bolus ATRA in corn oil, and vehicle (corn oil) were administered to arthritic SKG subcutaneously between the scapula of SKG mice (FIGS. 9A-B).

The subject of data set [3] is CD4+ T cells. Kind of data set: 24-hour pretreatment then transfer to Th17 inducing conditions. The following applies: 24-hour pretreatment 1 nM ATRA, washed. It counts as cell-based. The method, then: FIG. 10A depicts the quantification of FOXP3 expression in CD4+ T cells after 24-hour pretreatment with either nothing (None), 1 nM ATRA (ATRA), or IL-2, followed by removal and washing of the cells, and transfer to Th17 inducing conditions. FIG. 10B depicts quantification of IL-17 expression in CD4+ T cells after a 24-hour pretreatment with either nothing (None), 1 nM ATRA (ATRA), or IL-2, followed by removal and washing of the cells, and transfer to Th17 inducing conditions. Pre-treatment of the CD4+ T cells with ATRA increases FOXP3 expression and reduces IL-17 expression after exposure to Th17 inducing conditions.

Data set [4] relates to rodents. As to conditions: cited from earlier work.
Data set [5] relates to Naïve SKG CD4+ T cells. Kind of data set: ex vivo Th17 differentiation assay in Th17 inflammatory conditions. It counts as cell-based, mouse. The following applies: for FoxP3 expression in CD4+ T cells: Th17 polarizing cytokines, four days. As for the experimental part: To test the effect of ATRA on enhancing Treg cells, an ex vivo differentiation and stabilization assay in Th17 inflammatory conditions using cytokine supplementation was performed (FIG. 1A). Naïve SKG CD4+ T cells were isolated to consistently obtain greater than 90% CD4+CD44−CD62L+ post-enrichment (data not shown). Subsequently, these cells were stimulated with anti-mouse CD3 (αCD3) and CD28 (αCD28) antibodies along with Th17 polarizing cytokines IL-6, TGF-β1, IL-1β, and IL-23, and immunophenotypes were analyzed after four days. In a subset of conditions, ATRA was added to the T cell culture medium, ranging from 10 pM to 10 nM. […] In addition to reduced expression of IL-17A, the fraction of RORγt+CD4+ T cells was reduced in 1 nM ATRA conditions (53.3±7.9%) relative to cells exposed 0 nM ATRA (73.3±3.9%) (FIG. 1D).
(§1) The bioactivity of released ATRA was assessed following the experimental schematic outlined in FIG. 1A with supernatant collected at day 1, 14 and 28 and replicates diluted to the expected joint concentration based on delivery of 2 μg ATRA-encapsulated PLGA MPs injected in ˜20 μL of synovial fluid.

For data set [6], the system named is chromatin of cells cultured in Th17 inducing conditions. Kind of data set: Assay for Transposase Accessible Chromatin (ATAC) sequencing. The data set is classed as cell-based. As for the experimental part: Assay for Transposase Accessible Chromatin (ATAC) sequencing assay uses a hyperactive protein to bind and snip DNA in open chromatin regions to probe for the parts of DNA are accessible for transcription. The ATAC assay was performed to determine whether ATRA causes epigenetic modifications to cellular DNA to influence the accessibly of DNA for transcription and, in turn, modulating what a cell's “default” state/programs are. Quantification of differentially accessible regions (DARs) is shown by counts per peak between cells cultured in Th17 inducing conditions with (ATRA Treated) or without (Th17 Control) 1 nM ATRA. (FIG. 11A).
FIG. 11C is a heatmap of all DARs grouped in rows by those enriched in the ATRA treated group or those enriched in the Tb17 Control group. Heatmapping was performed by determining the z-score of the DAR in a given sample as compared to the row. A Genome browser plot for Th17 and Treg associated genes is shown (FIG. 11D). The size of the peaks corresponds to the number of reads, so the bigger the peaks are the more accessible that region of DNA is.

Data set [7] relates to healthy C57BL/6J (B6) mice. Description: OVA immunization in healthy C57BL/6J mice. It counts as in vivo, mouse. As to conditions: spleen; daily i.p. administration. An excerpt: To quantify the effect of IA ATRA-encapsulated PLGA MPs on arthritis-irrelevant T cell suppression we leveraged OVA-specific tetramers available for quantifying T cells in H2b-background mice and conducted the aforementioned immunization study in healthy C57BL/6J (B6) mice (FIG. 8D). Systemically administered ATRA was delivered as a daily intraperitoneal (i.p.) injection to assess the effect of systemic exposure.

The subject of data set [8] is SKG FoxP3eGFP Treg cells. Description: Treg cell stability (destabilization) assay. The following applies: 1 nM ATRA, IL6, 72 hours. It counts as cell-based, mouse. As for the experimental part:
The loss of FoxP3 expression correlated with Treg cell transitioning to a Th17-like exTreg cell phenotype, with 23.0±1.7% and 13.3±1.5% of cells without ATRA expressing RORγt and IL-17, respectively, compared to 11.6±1.8% and 5.7±1.1% of cells cultured with 1 nM ATRA (FIGS. 1G and H).
as §1

For `CC1=C(/C=C/C(C)=C/C=C/C(C)=C/C(=O)O)C(C)(C)CCC1` [bolus ATRA, all-trans retinoic acid], the “severity of arthritis / clinical benefit” value in data set [1] (2 μg IA MPs versus dose-matched IA bolus) was “no clinical benefit”. Moreover, the “clinical scores in ipsilateral and contralateral ankles” value in data set [1] (dose-matched IA bolus in corn oil) is on record as “increased comparably”. In addition, in data set [2], the ankle swelling entry is on record as “Neither bolus ATRA nor ATRA-encapsulated PLGA MPs provided improvement” and the clinical score entry is on record as “Neither bolus ATRA nor ATRA-encapsulated PLGA MPs provided improvement”.
Turning to `CC1=C(/C=C/C(C)=C/C=C/C(C)=C/C(=O)O)C(C)(C)CCC1` [ATRA, all-trans retinoic acid], the FOXP3 expression entry in data set [3] is on record as “increases”. Further, the IL-17 expression result in data set [3] is “reduces”. For the same compound, in data set [4], the “doses associated with toxicity” value was over 14 mg/kg. In addition, the “fraction of IL-17A+CD4+ T cells” value is on record as 9.5±1.7% in data set [5] (10 pM ATRA), 7.2±1.5% in data set [5] (100 pM ATRA), 5.4±1.9% in data set [5] (1 nM ATRA) and 5.4±2.3% in data set [5] (10 nM ATRA). Moreover, the “fraction of RORγt+CD4+ T cells” value in data set [5] (1 nM ATRA) is 53.3±7.9%. In addition, the “FoxP3 expression in CD4+ T cells” value in data set [5] (ATRA above 100 pM) was determined as 40.0±3.4%; in data set [5] (ATRA below 100 pM) it was 11.2±2.3%. The “regions in the DNA more open in the ATRA treated cells” value in data set [6] (1 nM ATRA versus Th17 control) worked out at 7957. In data set [6] (1 nM ATRA, genome browser plot), the “accessibility of FoxP3 locus” value is “promotes accessibility”. In data set [6] (Th17 control versus 1 nM ATRA), the “regions in the DNA more open in the Th17 control” value was found to be 10316. Also, in data set [7], the “OVA-specific CD4+ T cells (tetramer staining)” value is given as “significantly lower”. The “cells expressing IL-17” value in data set [8] was 5.7±1.1%. For the same compound, the “cells expressing RORγt” value in data set [8] came out at 11.6±1.8%. Also, in data set [8], the “cells retaining FoxP3eGFP expression” value was found to be 71.6±5.5%.
